Measurements: patent US20240174634A1, “Aldehyde Dehydrogenase Inhibitors and Their Therapeutic Use” (priority 2020, published 2024)

target: T1, ALDH1A3 (Homo sapiens, UniProt P47895); assay: ALDH1A3 cellular assay (ALDEFLUOR) in WM266.4 melanoma cells; type: cell-based; details: WM266.4 cells; 60 min incubation; percentage of ALDH-positive cells
T1 sequence (P47895 1-512): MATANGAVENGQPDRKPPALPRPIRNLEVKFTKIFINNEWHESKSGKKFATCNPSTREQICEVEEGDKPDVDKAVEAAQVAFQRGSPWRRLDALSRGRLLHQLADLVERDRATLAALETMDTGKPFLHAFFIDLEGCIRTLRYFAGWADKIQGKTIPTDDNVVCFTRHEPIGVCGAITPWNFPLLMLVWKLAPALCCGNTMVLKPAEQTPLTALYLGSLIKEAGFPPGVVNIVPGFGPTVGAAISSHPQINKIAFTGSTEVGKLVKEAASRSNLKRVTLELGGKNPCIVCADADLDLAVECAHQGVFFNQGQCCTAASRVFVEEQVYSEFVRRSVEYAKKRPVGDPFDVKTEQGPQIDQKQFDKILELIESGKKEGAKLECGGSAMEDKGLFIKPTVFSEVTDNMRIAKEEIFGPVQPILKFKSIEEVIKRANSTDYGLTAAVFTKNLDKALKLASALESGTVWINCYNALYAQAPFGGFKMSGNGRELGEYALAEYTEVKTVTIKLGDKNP
How it was run: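 WM266.4 melanoma cells, 7500 per well, incubated overnight, then 60 min at 37 °C with compound (10 μM to 0.0005 μM, 10 points) plus BAAA substrate (500 nM final), verapamil (50 μM) and Hoechst. Imaged BODIPY fluorescence per cell; EC50 from percentage of ALDH-positive cells.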

`C[C@@H](c1ccccc1)N(CCO)CCOc1ccc2c(c1)CCC(=O)N2` [ALDHI-3007, 6-[2-[2-hydroxyethyl-[(1S)-1-phenylethyl]amino]ethoxy]-3,4-dihydro-1H-quinolin-2-one] and `CN(CCOc1ccc2c(c1)CCC(=O)N2)Cc1cccnc1` [ALDHI-3010, 6-[2-[methyl(3-pyridylmethyl)amino]ethoxy]-3,4-dihydro-1H-quinolin-2-one] fall in the same range of IC50: 0.1 to 1 µM for the first, 0.1 to 1 µM for the second.

Compared with `CN(CCOc1ccc2c(c1)CCC(=O)N2)C(=O)c1cccc(F)c1` [ALDHI-3008, 3-fluoro-N-methyl-N-[2-[(2-oxo-3,4-dihydro-1H-quinolin-6-yl)oxy]ethyl]benzamide], `CN(CCOc1ccc2c(c1)CCC(=O)N2)C(=O)c1cccnc1` [ALDHI-3013, N-methyl-N-[2-[(2-oxo-3,4-dihydro-1H-quinolin-6-yl)oxy]ethyl]pyridine-3-carboxamide] is higher in IC50: 0.1 to 1 µM for the first, 1 to 10 µM for the second.
